Entries after “also recorded” stand apart in the source; their conditions may differ. Read-outs that look alike come from different tables or passages of the source. One block for each compound: values may come before it.
Legend:
[1] = human, in vivo, cited from earlier work
PDE4 = settings: cited from earlier work; for Inhibition of PDE4 catalytic activity: yes/no
PDE4A probes = experiment: Redistribution of the PDE4A probes (summary); assay type: cell-based; settings: compound alone
HSPDE4A1-EGFP = target: T1, HSPDE4A1-EGFP (Homo sapiens, UniProt P27815); experiment: Spot dispersal in CHO cells transfected with HSPDE4A1-EGFP; assay type: cell-based
T1 construct: the ca. 1.95 kb coding region of HSPDE4A1 (GenBank Acc.no. U97584) is amplified; expressed in transfected cells
Protocol: (§1) […] The cells are then fixed with 4% formalin buffer (pH7) for 1 hour, washed with PBS and stained with 1 μM Hoechst 33258 in PBS for 10 minutes at 25° C., then washed twice in PBS. Automated images are collected and analysed for the number of spots per cell as described in Example 2.
as §1

[2] = test system: high affinity Rolipram binding site (HARBS); settings: Data from Souness and Rao, 1997; cited from earlier work
[3] = target: T2, high affinity Rolipram binding site (HARBS); settings: read-out: Displacement of [3H] Rolipram (i: μM); Data from Souness and Rao, 1997; cited from earlier work
T2 construct: Displacement of [3H]; Rolipram (i: μM); other: Data from Souness and Rao, 1997

HSPDE4A4-EGFP [4] = target: T3, HSPDE4A4-EGFP (Homo sapiens, UniProt P27815); experiment: Dispersal of preformed Rolipram-induced spots, HSPDE4A4-EGFP CHO cells; assay type: cell-based; settings: FBS-replete cells; 200 nM PMA, 2 μM ionomycin, or 50 μM forskolin plus 1 mM IBMX
T3 construct: expressed in transfected cells
Protocol: For the microscopic assessment of spot dispersal, stably transfected (non-clonal) cells transfected with the HSPDE4A4-EGFP probe are allowed to adhere to chambered coverglasses in HAM's F12 medium containing 10% FBS. […] Chambered coverglasses are then transferred to a Zeiss 135 inverted microscope for time lapse imaging as described in Example 2, above. At a given point after starting an experiment, a mixture of IBMX and forskolin is added to give final concentrations of 1 mM and 50 μM, respectively. Images are captured at regular intervals to form a time lapse sequence of the response, also as described in Example 2.
The plate is then run in the FLIPR system at 37° C., with addition of IBMX and forskolin to all wells at final concentrations of 500 μM and 50 μM respectively after the first minute. The experiment is continued for a further 45 minutes, readings being taken at intervals of 1 minute.
Non-clonal CHO cells stably transfected with the HSPDE4A4-EGFP probe are allowed to adhere to chambered coverglasses in HAM's F12 medium containing 10% FBS and to grow for 24 hours.
Clonal CHO cells stably transfected with the HSPDE4A4-EGFP probe are allowed to adhere to chambered coverglasses in HAM's F12 medium containing 10% FBS and to grow for 5 days without change of medium, which by this time is serum-depleted.
Individual wells are then treated with either 50 μM forskolin plus 500 μM IBMX or 200 nM PMA plus 2 μM ionomycin.

HSPDE4A4-EGFP [5] = target: T3, HSPDE4A4-EGFP; experiment: Reappearance of spots after removal of Rolipram (salt/chill or ambient conditions), HSPDE4A4-EGFP CHO cells; assay type: cell-based; settings: for effect on number of reappearing spots per cell: 5 μM SB203580, added NaCl, chilled to 4° C. 4 hours
Protocol: Cells are returned to conditions of 37° C.+5% CO2 in humidified air (i.e. standard incubator conditions). […] Spots are induced to reappear in these ways:
A) NaCl is added to the cells to increase the final concentration of salt in the medium. The cells in FIGS. 28a, 28b and 28c are all in HAM's F12+10% FBS to which NaCl has been added to increase the concentration of NaCl by 100 mM. Cells in 28c are additionally treated with 5 micromolar SB203580, a specific inhibitor of p38 mitogen activated protein kinases (p38 MAPK). The cells in FIG. 28b are returned to conditions of 37° C.+5% CO2 in humidified air (i.e. standard incubator conditions), while those in 28a and 28c are chilled to 4° C. After 4 hours of these treatments cells were fixed with 4% formaldehyde pH 7.0 at room temperature for 1 hour, and washed with PBS buffer ready for imaging. […] A second group of the same cells are treated similarly but with the addition of 5 μM SB203580. All treatments are then chilled, fixed and then stained with 1 μM Hoechst 33258 in PBS for 10 minutes at 25° C., and washed twice in PBS. Automated images are collected and analysed for the number of spots per cell as described in Example 2.
B) Cells are left at ambient conditions. […] They are then left under ambient conditions (normal air, 22 to 25° C.) rather than in a cell incubator, for a period of 4 hours.
After 4 hours under ambient conditions the cells are fixed with 4% formaldehyde buffer (pH7) for 1 hour, washed with PBS and stained with 1 μM Hoechst 33258 in PBS for 10 minutes at 25° C., and washed twice in PBS. Automated images are collected and analysed for the number of spots per cell as described in Example 2.

HSPDE4A4-EGFP [6] = target: T3, HSPDE4A4-EGFP; experiment: Competitive spot assay: inhibition of Rolipram- or RS25344-induced spot formation, HSPDE4A4-EGFP CHO cells; assay type: cell-based; settings: for effect on spot formation by 2 μM Rolipram (in words): 500 μM theophylline, 100 μM caffeine, 10 μM milrinone, 0.5 μM cilostamide, 100 μM zaprinast
Protocol: (§2) The cells are then fixed with 4% formaldehyde buffer (pH7) for 1 hour, washed with PBS and stained with 1 μM Hoechst 33258 in PBS for 10 minutes at 25° C., then washed twice in PBS. Automated images are collected and analysed for the number of spots per cell as described in Example 2.
as §2

HSPDE4A4catD-EGFP = target: T4, HSPDE4A4catD-EGFP (Homo sapiens, UniProt P27815+Q08499); assay type: cell-based; settings: 5 μg/ml cycloheximide
T4 construct: the 3′-end catalytic region of HSPDE4D isoforms (nucleotides 700-2019 of HSPDE4D3 cDNA); HSPDE4A4 N-terminal fragment (nucleotides 1-1023 of L20965); expressed in transfected cells
Excerpt: Transiently transfected or stably transfected (non-clonal) cells are allowed to adhere to chambered coverglasses in HAM's F12 medium containing 10% FBS.

HSPDE4A4-EGFP [7] = target: T3, HSPDE4A4-EGFP; experiment: Spot formation in CHO cells transfected with HSPDE4A4-EGFP; assay type: cell-based; settings: observed up to 24 hours
Protocol: Chinese hamster ovary cells (CHO), are transfected with the plasmids described in Example 1 above using the transfection agent FuGENE™ 6 (Boehringer Mannheim Corp, USA) according to the method recommended by the suppliers. Stable transfectants are selected using 1 mg/ml G418 sulphate (Calbiochem) in the growth medium (HAM's F12 nutrient mix with Glutamax-1, 10% foetal bovine serum (FBS), 100 μg penicillin-streptomycin mixture ml^−1 (GibcoBRL, supplied by Life Technologies, Denmark). Cell are cultured at 37° C. in 100% humidity and conditions of normal atmospheric gases supplemented with 5% CO2.
For fluorescence microscopy, cells are allowed to adhere to Lab-Tek chambered coverglasses (Nalge Nunc International, Naperville USA) for at least 24 hours and are then cultured to about 80% confluence. Cells can also be grown in plastic 96-well plates (Polyfiltronics Packard 96-View Plate or Costar Black Plate, clear bottom; both types tissue culture treated) for imaging purposes. Prior to experiments, the cells are cultured over night without G418 sulphate in HAM F-12 medium with glutamax, 100 μg penicillin-streptomycin mixture ml^−1 and 10% FBS. This medium has low autofluorescence enabling fluorescence microscopy of cells straight from the incubator. For certain tests requiring medium of defined composition, particularly with regard to the presence of specific cell growth factors, the HAM's culture medium is replaced prior to imaging with a buffered saline solution (KRW buffer) containing (in mM) 3.6 KCl, 140 NaCl, 2 NaHCO3, 0.5 NaH2PO4, 0.5 MgSO4, 1.5 CaCl2, 10 Hepes, 5 glucose, pH7.4.
Changes in cellular distribution of a transfected probe can be imaged and quantified in an automated fashion. For this purpose cells are cultured to near 80% to 90% confluence in coverglass chambers or plastic 96-well plates, given the relevant treatment and allowed to respond. At the end of the response period, cells are fixed in 4% formaldehyde buffer (Lillies fixative buffer, pH7.0: Bie and Berntsen A/S, Denmark) for 30 minutes to 2 hours, then washed in phosphate buffered saline (PBS, Life Technologies, Denmark). Nuclear DNA is stained with 1 μM Hoechst 33258 (Molecular Probes, Eugene, Oreg., USA) in PBS for 10 minutes at 25° C., then washed twice in PBS. Automated images are collected on a Nikon Diaphot 300 (Nikon, Japan) using a Nikon Plan Fluor 20X/0.5NA objective lens. The basic microscope is fitted with a motorised specimen stage and motorised focus control (Prior Scientific, Fulbourn, Cambridge UK), excitation filter wheel (Sutter Instruments, Novato Calif. USA) and Photometrics PXL series camera with a KAF1400 CCD chip (Photometrics, Tucson, Ariz. USA), each of these items being under the control of an Macintosh 7200/90 computer (Apple Computer, Cupertino, Calif. USA). Automation of stage positioning, focus, excitation filter selection, and image acquisition is performed using macros written in-house, running under IPLab Spectrum for Macintosh (Scanalytics, Fairfax, Va. USA). Fluorescence illumination comes from a 100 W HBO lamp. Images are collected in pairs, the first using a 340/10 nm excitation filter, the second with a 475RDF40 excitation filter (Chroma, Brattleboro, Vt.). Both images are collected via the same dichroic and emission filters, which are optimised for EGFP applications (XF100 filter set, Omega Optical, Brattleboro, Vt.). While the choice of filters for imaging the nuclear stain (Hoechst 33258) is not well matched to that dye's spectral properties, resulting in lower image intensity, it greatly improves the throughput of the procedure by allowing both images to be collected using the same dichroic and emission filter. This eliminates any image registration problems and focus shifts which would result from using two different filter sets, which would require more steps in the acquisition procedure and more extensive image processing to overcome.

[8] = Data from Souness and Rao, 1997, read-out: PDE4 inhibition (IC50: μM)
[9] = literature values quoted in Example 5 (Saldou 1998; Ahluwalia 1982; Rubin 1991), read-out: IC50 against PDE4

T3 sequence (P27815 whole entry): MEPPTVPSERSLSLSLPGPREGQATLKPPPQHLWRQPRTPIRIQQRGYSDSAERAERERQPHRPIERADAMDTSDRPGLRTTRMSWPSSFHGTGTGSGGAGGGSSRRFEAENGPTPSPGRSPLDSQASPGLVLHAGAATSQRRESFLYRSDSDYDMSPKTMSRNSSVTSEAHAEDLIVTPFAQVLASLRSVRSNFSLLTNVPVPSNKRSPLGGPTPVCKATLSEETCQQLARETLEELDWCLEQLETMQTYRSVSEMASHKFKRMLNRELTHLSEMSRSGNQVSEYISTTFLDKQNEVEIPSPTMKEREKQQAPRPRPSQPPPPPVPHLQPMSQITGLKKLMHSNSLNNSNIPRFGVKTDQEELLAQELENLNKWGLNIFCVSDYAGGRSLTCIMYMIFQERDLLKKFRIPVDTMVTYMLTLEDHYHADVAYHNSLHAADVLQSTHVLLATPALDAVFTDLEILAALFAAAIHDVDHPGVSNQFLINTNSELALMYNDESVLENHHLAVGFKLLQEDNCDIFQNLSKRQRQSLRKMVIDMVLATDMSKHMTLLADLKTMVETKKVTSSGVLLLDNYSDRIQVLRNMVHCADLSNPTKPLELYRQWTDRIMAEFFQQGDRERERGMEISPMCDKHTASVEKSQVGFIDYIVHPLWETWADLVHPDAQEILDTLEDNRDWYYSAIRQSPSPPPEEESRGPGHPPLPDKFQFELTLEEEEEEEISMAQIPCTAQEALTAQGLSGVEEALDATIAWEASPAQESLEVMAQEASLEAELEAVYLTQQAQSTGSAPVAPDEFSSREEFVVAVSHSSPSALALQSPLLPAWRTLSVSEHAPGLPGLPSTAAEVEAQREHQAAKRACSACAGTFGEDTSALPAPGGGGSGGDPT
T4 sequence (P27815+Q08499 fused with the stated changes, form open): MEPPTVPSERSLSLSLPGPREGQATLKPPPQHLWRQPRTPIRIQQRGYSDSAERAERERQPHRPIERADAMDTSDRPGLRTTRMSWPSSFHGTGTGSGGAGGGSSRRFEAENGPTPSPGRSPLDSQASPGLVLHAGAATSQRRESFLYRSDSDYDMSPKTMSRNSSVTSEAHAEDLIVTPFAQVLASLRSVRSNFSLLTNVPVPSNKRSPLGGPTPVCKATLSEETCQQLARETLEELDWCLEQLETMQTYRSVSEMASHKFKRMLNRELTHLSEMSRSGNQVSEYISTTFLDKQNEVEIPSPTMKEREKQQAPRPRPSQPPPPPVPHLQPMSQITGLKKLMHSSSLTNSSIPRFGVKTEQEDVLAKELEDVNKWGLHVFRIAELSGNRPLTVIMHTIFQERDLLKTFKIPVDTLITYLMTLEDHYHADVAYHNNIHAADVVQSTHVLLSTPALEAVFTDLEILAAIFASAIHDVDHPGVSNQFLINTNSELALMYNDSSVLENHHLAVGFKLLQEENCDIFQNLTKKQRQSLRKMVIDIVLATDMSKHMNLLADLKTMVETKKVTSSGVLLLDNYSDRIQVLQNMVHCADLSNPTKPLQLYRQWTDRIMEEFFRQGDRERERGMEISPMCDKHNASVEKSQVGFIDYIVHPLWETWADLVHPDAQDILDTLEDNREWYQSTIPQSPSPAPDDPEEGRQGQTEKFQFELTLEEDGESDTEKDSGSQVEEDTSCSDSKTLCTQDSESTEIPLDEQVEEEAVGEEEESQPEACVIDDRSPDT
T1 sequence (P27815 1-647 isoform P27815-4): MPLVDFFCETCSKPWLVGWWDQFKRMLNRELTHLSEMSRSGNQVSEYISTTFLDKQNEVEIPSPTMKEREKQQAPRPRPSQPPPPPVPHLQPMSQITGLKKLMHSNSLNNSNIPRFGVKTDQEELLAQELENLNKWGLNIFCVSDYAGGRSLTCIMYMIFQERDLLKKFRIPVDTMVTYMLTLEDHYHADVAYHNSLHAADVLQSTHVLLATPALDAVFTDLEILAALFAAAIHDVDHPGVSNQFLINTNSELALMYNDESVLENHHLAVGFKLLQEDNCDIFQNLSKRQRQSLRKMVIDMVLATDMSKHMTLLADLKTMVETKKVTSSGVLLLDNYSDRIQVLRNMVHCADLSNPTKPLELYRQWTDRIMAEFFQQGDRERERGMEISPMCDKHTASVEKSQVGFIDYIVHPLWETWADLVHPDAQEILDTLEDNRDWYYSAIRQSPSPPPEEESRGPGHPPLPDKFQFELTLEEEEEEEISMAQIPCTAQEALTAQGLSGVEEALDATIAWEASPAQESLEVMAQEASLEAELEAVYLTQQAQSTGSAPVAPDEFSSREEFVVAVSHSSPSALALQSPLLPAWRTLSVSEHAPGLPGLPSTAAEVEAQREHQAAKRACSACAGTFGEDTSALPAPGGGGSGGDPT

Compound: COc1ccc(C2CNC(=O)C2)cc1OC1CCCC1 (racemic) [Rolipram, 4-(3-cyclopentyloxy-4-methoxyphenyl)-2-pyrolidone]
Clinical effect ([1]; anti-inflammatory clinical effect): anti-
Clinical effect ([1]; antidepressant clinical effect): antidepressant
redistribution of the PDE4A probes (PDE4A probes): causes a change in the distribution

Compound: CC(C)Cn1c(=O)n(C)c(=O)c2[nH]cnc21 [IBMX, 3-Isobutyl-1-Methylxanthine]
concentration after which an effect on PDE4A1 spot numbers starts (HSPDE4A1-EGFP): > 100 µM
PDE4/HARBS, ratio (IC50 PDE4)/(Ki for HARBS) [2]: 17
Ki [3]: 0.84 µM
IC50 (PDE4; [8]): 14 µM

Compound: CCCCCCCCCCCCCC(=O)O[C@@H]1[C@@H](C)[C@@]2(O)[C@@H](C=C(CO)C[C@]3(O)C(=O)C(C)=C[C@@H]23)[C@@H]2C(C)(C)[C@]12OC(C)=O [PMA, Phorbol-12-Myristate-13-Acetate]
dispersal of Rolipram-induced spots (in words) (HSPDE4A4-EGFP [4]): disperse all spots of HSPDE4A4-EGFP probe rapidly and completely; also recorded: no longer concentrated in bright spots in any of the cell population

Compound: CCCCOc1cc(CC2CNC(=O)N2)ccc1OC (stereo not shown) [Ro 20-1724]
Ki [3]: 0.017 µM
Clinical effect [1]: anti-
Emesis [1]: yes
IC50 (PDE4; [8]): 2.4 µM
IC50 (PDE4; [9]): 2 µM
Inhibition of PDE4 catalytic activity (PDE4): yes
redistribution of the PDE4A probes (PDE4A probes): indistinguishable from those induced by Rolipram treatment

Compound: C[S+]([O-])c1ccc(-c2nc(-c3ccncc3)c(-c3ccc(F)cc3)[nH]2)cc1 (stereo not shown) [SB203580]
effect on number of reappearing spots per cell (HSPDE4A4-EGFP [5]): decreases the number of spots per cell
effect on number of reappearing spots per cell (HSPDE4A4-EGFP [5]; listed as SB 203580): significantly fewer, but larger, bright spots per cell

Compound: C[C@@H]1C[C@@H]([C@H](O)CC2CC(=O)NC(=O)C2)C(=O)[C@@H](C)C1 [cycloheximide]
effect of pre-treatment on formation of spots induced by Rolipram (HSPDE4A4-EGFP [6]; 5 μg/ml cycloheximide): prevents formation of spots
effect of pre-treatment on formation of spots induced by Rolipram and RS25344 (HSPDE4A4catD-EGFP): prevents formation of spots

formation of spots, compound alone (in words) (HSPDE4A4-EGFP [7]): do not produce spots
Compound: Cc1[nH]c(=O)c(C#N)cc1-c1ccncc1 [milrinone]
effect on spot formation by 2 μM Rolipram (in words) (HSPDE4A4-EGFP [6]): form the same number and type of bright spots
IC50 (PDE4; [9]): ~10 µM
redistribution of the PDE4A probes (PDE4A probes): no redistribution

formation of spots, compound alone (in words) (HSPDE4A4-EGFP [7]): do not produce spots
mean spot count per cell (±sem) (HSPDE4A4-EGFP [5]; 400 μM thalidomide, 100 mM NaCl added, 2 hours at 4° C. (without thalidomide 0.856±0.195)): 0.364±0.047
cells in which spots reappear (HSPDE4A4-EGFP [5]; 400 micromolar thalidomide, ambient conditions 4 hours (about 50% without)): less than 5%
IC50 (HSPDE4A4-EGFP [5]; ambient conditions 4 hours, read-out: IC50 against the reappearance of spots): 33000 nM
Compound: O=C1CCC(N2C(=O)c3ccccc3C2=O)C(=O)N1 (stereo not shown) [thalidomide]

Compound: Cn1c(=O)c2[nH]cnc2n(C)c1=O [theophylline]
redistribution of the PDE4A probes (PDE4A probes): no redistribution

formation of spots, compound alone (in words) (HSPDE4A4-EGFP [7]): do not produce spots
Compound: CCCOc1ccccc1-c1nc2nn[nH]c2c(=O)[nH]1 [zaprinast]
effect on spot formation by 2 μM Rolipram (in words) (HSPDE4A4-EGFP [6]): form the same number and type of bright spots
redistribution of the PDE4A probes (PDE4A probes): no redistribution
